Data set [1] concerns several mammalian cell types. The conditions noted are these: energy-independent manner (Zhao et al., 2003); cited from earlier work.
Data set [2] has as its system inner mitochondrial membrane. Conditions: cited from earlier work.
The nature of another data set: in vivo. The protocol:
Six weeks after induction of RAS, animals were similarly anesthetized, the degree of stenosis determined by angiography, and subjects were treated with PTRA or sham. Heating pads maintained the animal's body temperature by about 37° C. during surgery, and PTRA and stenting performed under fluoroscopic guidance, as previously described. In addition, ARAS subjects were treated with a continuous intravenous infusion of peptide 0.050 mg/kg or an equal volume of saline vehicle from 30 min before to 3.5 hrs after PTRA or sham. […] Urinary samples were collected before peptide infusion and 210 min after PTRA.
4 mL venous whole blood samples were collected from peptide-treated animals at baseline (immediately before peptide infusion), immediately before PTRA, and 30 and 180 min post-reperfusion. Venous blood were drawn using syringes into BD Vacutainer® PST™ Plasma Separation Tubes (lavender top) containing K2EDTA, 10 mL/tube. Tubes were gently inverted 8 times and kept in an ice water bath until centrifugation. Within an hour samples were centrifuged in a swing bucket centrifuge at 1000-1300 RCF (or […]) for 15 min at 4° C. Plasma were harvested from individual blood tubes, placed in a single polypropylene vials (or screw-cap tubes) and stored at approximately −80° C. until assay.
The plasma concentration of D-Arg-2′,6′-Dmt-Lys-Phe-NH2 was determined using a qualified LC/MS/MS assay in K2-EDTA pig plasma. The assay employed deuterium labeled d5-D-Arg-2′,6′-Dmt-Lys-Phe-NH2 as the analytical internal standard (IS). […] Positive (M+2H)^2+ ions for D-Arg-2′,6′-Dmt-Lys-Phe-NH2 and the IS (d5-D-Arg-2′,6′-Dmt-Lys-Phe-NH2) were monitored in MRM mode. Drug-to-IS peak area ratios for the standards were used to create a linear calibration curve ranging from 2.5 to 1000 ng/mL.
Peptide IV infusion started at 30 minutes prior to the PTRA procedure and continued for 210 minutes at 0.05 mg/kg/h.

Another data set addresses mu-opioid receptor (Homo sapiens, UniProt P35372). The conditions noted are these: stated without data; assays cited; cited from earlier work.

Square brackets hold non-standard residues; d marks the D form. Ends that are not written are not given here. Peptide text beside a SMILES is read from it. Dmt = Cc1cc(O)cc(C)c1C[C@H](N)C(=O)O

Sequence of mu-opioid receptor (P35372 whole entry, species assumed): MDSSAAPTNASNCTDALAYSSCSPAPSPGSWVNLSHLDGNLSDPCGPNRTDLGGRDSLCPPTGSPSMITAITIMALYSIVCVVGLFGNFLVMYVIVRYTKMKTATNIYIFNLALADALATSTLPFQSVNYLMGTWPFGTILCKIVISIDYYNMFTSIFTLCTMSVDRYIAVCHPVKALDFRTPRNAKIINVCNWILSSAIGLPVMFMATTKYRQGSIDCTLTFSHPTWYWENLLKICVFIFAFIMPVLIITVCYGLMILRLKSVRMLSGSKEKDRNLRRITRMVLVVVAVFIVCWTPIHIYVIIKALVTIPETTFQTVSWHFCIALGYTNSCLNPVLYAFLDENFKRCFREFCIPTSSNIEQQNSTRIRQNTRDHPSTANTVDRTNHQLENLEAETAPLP

For the compound 2′,6′-Dmt-D-Arg-Phe-Lys-NH2, in data set [1], the “penetration of the plasma membrane” value is given as “readily penetrates”.

`Cc1cc(O)cc(C)c1C[C@H](NC(=O)[C@H](N)CCCNC(=N)N)C(=O)N[C@@H](CCCCN)C(=O)N[C@@H](Cc1ccccc1)C(N)=O` [D-Arg-2′,6′-Dmt-Lys-Phe-NH2] (H-[dR][Dmt]KF-NH2): the “concentration in the inner mitochondrial membrane” value in data set [2] is 500-5000 fold. Besides, the “Mean peptide Concentration” value was “BQL” in “in vivo” (0 min from peptide infusion (−30 min from PTRA), 3.5-h IV infusion 0.05 mg/kg/h); 100.6 ± 36.2 ng/mL in the data set “in vivo” (30 min from peptide infusion (time of PTRA), IV infusion 0.05 mg/kg/h); 100.6 ng/mL in “in vivo” (30 min from peptide infusion (time of PTRA), IV infusion 0.05 mg/kg/h, listed as Peptide). This compound displayed a level at 0.5 h in “in vivo” (pig, plasma, iv, 0.05 mg/kg/h, Mean peptide Concentration, 30 min from peptide infusion (time of PTRA), IV infusion 0.05 mg/kg/h) of around 100 ng/mL. In “in vivo” (pig, plasma, iv, 0.05 mg/kg/h, Mean peptide Concentration, 60 min from peptide infusion (30 min from PTRA), IV infusion 0.05 mg/kg/h), this compound came in with a level at 1 h of 118 ± 23.7 ng/mL. Besides, in “in vivo” (pig, plasma, iv, 0.05 mg/kg/h, Mean peptide Concentration, 90 min from peptide infusion (60 min from PTRA), IV infusion 0.05 mg/kg/h), the level at 1.5 h came to 125 ± 21.4 ng/mL. This compound had a level at 3.5 h in “in vivo” (pig, plasma, iv, 0.05 mg/kg/h, Mean peptide Concentration, 210 min from peptide infusion (180 min from PTRA), IV infusion 0.05 mg/kg/h) of 111 ± 42 ng/mL. Besides, the “time to apparent steady state concentration” value in “in vivo” (post start of IV infusion) was 60 to 90 min.

For F[dR]FK-NH2, the “mu-opioid receptor agonist activity” value at mu-opioid receptor is reported as “does not have mu-opioid receptor agonist activity”.

As for Tyr-D-Arg-Phe-Lys-NH2, the “mu-opioid receptor agonist activity” value on mu-opioid receptor was “has mu-opioid receptor agonist activity”.
